Data as given in publication PMC6328046 (Gastroenterology, 2018).

Molecular target: HDAC2 (Homo sapiens, UniProt Q92769)
Test: surface plasmon resonance with recombinant HDAC2
Format: binding

Chain of HDAC2 (Q92769 whole entry): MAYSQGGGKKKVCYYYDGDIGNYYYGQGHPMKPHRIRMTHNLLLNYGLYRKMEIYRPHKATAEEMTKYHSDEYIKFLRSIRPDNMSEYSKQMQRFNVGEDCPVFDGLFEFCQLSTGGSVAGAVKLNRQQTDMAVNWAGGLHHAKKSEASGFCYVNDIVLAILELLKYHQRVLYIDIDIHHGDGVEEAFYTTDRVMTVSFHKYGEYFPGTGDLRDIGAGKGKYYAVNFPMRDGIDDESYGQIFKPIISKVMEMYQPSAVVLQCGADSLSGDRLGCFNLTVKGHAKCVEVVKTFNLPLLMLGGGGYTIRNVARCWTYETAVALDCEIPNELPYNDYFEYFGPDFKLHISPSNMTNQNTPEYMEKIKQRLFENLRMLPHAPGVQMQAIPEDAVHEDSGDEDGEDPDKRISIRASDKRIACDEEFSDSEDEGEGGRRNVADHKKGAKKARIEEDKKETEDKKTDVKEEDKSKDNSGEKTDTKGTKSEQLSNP

COc1ccc(Nc2nnc(-c3ccc(C(=O)NO)cc3)o2)cc1 [metavert]
Kd: 12.8 µM
